Key:
BT-549 = assay: NCI one-dose screening, breast cancer BT-549; format: cell-based, human; conditions: 10 μM
786-O = assay: NCI one-dose screening, renal cancer 786-O; format: cell-based, human; conditions: 10 μM
NCI-H522 = assay: NCI one-dose screening, non-small cell lung cancer NCI-H522; format: cell-based, human; conditions: 10 μM
ACHN = assay: NCI one-dose screening, renal cancer ACHN; format: cell-based, human; conditions: 10 μM
OVCAR-5 = assay: NCI one-dose screening, ovarian cancer OVCAR-5; format: cell-based, human; conditions: 10 μM
UO-31 = assay: NCI one-dose screening, renal cancer UO-31; format: cell-based, human; conditions: 10 μM
UACC-257 = assay: NCI one-dose screening, melanoma UACC-257; format: cell-based, human; conditions: 10 μM
TK-10 = assay: NCI one-dose screening, renal cancer TK-10; format: cell-based, human; conditions: 10 μM
SF-539 = assay: NCI one-dose screening, CNS cancer SF-539; format: cell-based, human; conditions: 10 μM
MDA-MB-468 = assay: NCI one-dose screening, breast cancer MDA-MB-468; format: cell-based, human; conditions: 10 μM
UACC-62 = assay: NCI one-dose screening, melanoma UACC-62; format: cell-based, human; conditions: 10 μM
SK-OV-3 = assay: NCI one-dose screening, ovarian cancer SK-OV-3; format: cell-based, human; conditions: 10 μM
RXF, 393 = assay: NCI one-dose screening, renal cancer RXF, 393; format: cell-based, human; conditions: 10 μM
OVCAR-8 = assay: NCI one-dose screening, ovarian cancer OVCAR-8; format: cell-based, human; conditions: 10 μM
T-47D = assay: NCI one-dose screening, breast cancer T-47D; format: cell-based, human; conditions: 10 μM
M14 = assay: NCI one-dose screening, melanoma M14; format: cell-based, human; conditions: 10 μM
A549/ATCC = assay: NCI one-dose screening, non-small cell lung cancer A549/ATCC; format: cell-based, human; conditions: 10 μM
HCC-2998 = assay: NCI one-dose screening, colon cancer HCC-2998; format: cell-based, human; conditions: 10 μM
SK-MEL-28 = assay: NCI one-dose screening, melanoma SK-MEL-28; format: cell-based, human; conditions: 10 μM
NCI-H226 = assay: NCI one-dose screening, non-small cell lung cancer NCI-H226; format: cell-based, human; conditions: 10 μM
NCl/ADR-RES = assay: NCI one-dose screening, breast cancer NCl/ADR-RES; format: cell-based, human; conditions: 10 μM; listed under Ovarian cancer
SK-MEL-5 = assay: NCI one-dose screening, melanoma SK-MEL-5; format: cell-based, human; conditions: 10 μM
MDA, -MB-435 = assay: NCI one-dose screening, breast cancer MDA, -MB-435; format: cell-based, human; conditions: 10 μM; listed under Melanoma
[1] = system: PC-3 prostate cancer cell line; assay: SRB assay cell viability, PC-3 prostate cancer cell line; format: cell-based, human; conditions: Homo sapiens, PC-3 prostate cancer cell line, Table II prints no unit, μM printed, read-out: SRB assay: 50% inhibition of cancer cell proliferation of sample concentration (IC50) of PC-3 prostate cancer cell line
SNB-75 = assay: NCI one-dose screening, CNS cancer SNB-75; format: cell-based, human; conditions: 10 μM
MCF7 = assay: NCI one-dose screening, breast cancer MCF7; format: cell-based, human; conditions: 10 μM
COLO 205 = assay: NCI one-dose screening, colon cancer COLO 205; format: cell-based, human; conditions: 10 μM
MALME-3M = assay: NCI one-dose screening, melanoma MALME-3M; format: cell-based, human; conditions: 10 μM
EKVX = assay: NCI one-dose screening, non-small cell lung cancer EKVX; format: cell-based, human; conditions: 10 μM
HOP-62 = assay: NCI one-dose screening, non-small cell lung cancer HOP-62; format: cell-based, human; conditions: 10 μM
SNB-19 = assay: NCI one-dose screening, CNS cancer SNB-19; format: cell-based, human; conditions: 10 μM
HCT-116 = assay: NCI one-dose screening, colon cancer HCT-116; format: cell-based, human; conditions: 10 μM
SN12C = assay: NCI one-dose screening, renal cancer SN12C; format: cell-based, human; conditions: 10 μM
human tumor cell lines = assay: NCI one-dose screening, Mean / Delta / Range of growth percent over all tested cell lines; format: cell-based; conditions: 10 μM
SK-MEL-2 = assay: NCI one-dose screening, melanoma SK-MEL-2; format: cell-based, human; conditions: 10 μM
HCT-15 = assay: NCI one-dose screening, colon cancer HCT-15; format: cell-based, human; conditions: 10 μM
MDA-MB-231/ATCC = assay: NCI one-dose screening, breast cancer MDA-MB-231/ATCC; format: cell-based, human; conditions: 10 μM
CAKI-1 = assay: NCI one-dose screening, renal cancer CAKI-1; format: cell-based, human; conditions: 10 μM
IGROV1 = assay: NCI one-dose screening, ovarian cancer IGROV1; format: cell-based, human; conditions: 10 μM
U251 = assay: NCI one-dose screening, CNS cancer U251; format: cell-based, human; conditions: 10 μM
NCI-H23 = assay: NCI one-dose screening, non-small cell lung cancer NCI-H23; format: cell-based, human; conditions: 10 μM
LOX IMVI = assay: NCI one-dose screening, melanoma LOX IMVI; format: cell-based, human; conditions: 10 μM
HT29 = assay: NCI one-dose screening, colon cancer HT29; format: cell-based, human; conditions: 10 μM

- IC50 [1]: 5.64 µM
SMILES: O=C1c2ccccc2C(=O)c2c1cc(Sc1cccc(Cl)c1)c1nsnc21 [C37, 4-(3-chlorophenyl-thio)anthra[2,1-c][1,2,5] thiadiazol-6,11-dione]
- Growth Percent BT-549 (BT-549): 36.21%
- Growth Percent 786-0 (786-O): −2.06%
- Growth Percent NCI-H522 (NCI-H522): 7.18%
- Growth Percent ACHN (ACHN): −92.53%
- Growth Percent OVCAR-5 (OVCAR-5): 108.55%
- Growth Percent UO-31 (UO-31): −74.79%
- Growth Percent UACC-257 (UACC-257): −84.59%
- Growth Percent TK-10 (TK-10): 53.81%
- Growth Percent SF-539 (SF-539): −52.72%
- Growth Percent MDA-MB-468 (MDA-MB-468): −79.19%
- Growth Percent UACC-62 (UACC-62): −64.98%
- Growth Percent SK-OV-3 (SK-OV-3): 95.44%
- Growth Percent RXF 393 (RXF, 393): −27.84%
- Growth Percent OVCAR-8 (OVCAR-8): −22.92%
- Growth Percent T-47D (T-47D): −42.26%
- Growth Percent M14 (M14): −76.44%
- Growth Percent A549/ATCC (A549/ATCC): 107.48%
- Growth Percent HCC-2998 (HCC-2998): 101.66%
- Growth Percent SK-MEL-28 (SK-MEL-28): 24.96%
- Growth Percent NCI-H226 (NCI-H226): 78.07%
- Growth Percent NCI/ADR-RES (NCl/ADR-RES): −15.13%
- Growth Percent SK-MEL-5 (SK-MEL-5): 19.02%
- Growth Percent MDA-MB-435 (MDA, -MB-435): −82.33%
- Growth Percent SNB-75 (SNB-75): 26.08%
- Growth Percent MCF7 (MCF7): −69.36%
- Growth Percent COLO 205 (COLO 205): 105.98%
- Growth Percent MALME-3M (MALME-3M): −86.56%
- Growth Percent EKVX (EKVX): 43.65%
- Growth Percent HOP-62 (HOP-62): 42.12%
- Growth Percent SNB-19 (SNB-19): 56.88%
- Growth Percent HCT-116 (HCT-116): −67.84%
- Growth Percent SN12C (SN12C): −66.17%
- Growth Percent Delta (human tumor cell lines; delta over all cell lines): 86.78%
- Growth Percent Mean (human tumor cell lines; mean over all cell lines): −5.75%
- Growth Percent Range (human tumor cell lines; range over all cell lines): 201.08%
- Growth Percent SK-MEL-2 (SK-MEL-2): −53.17%
- Growth Percent HCT-15 (HCT-15): 17.97%
- Growth Percent MDA-MB-231/ATCC (MDA-MB-231/ATCC): −29.08%
- Growth Percent CAKI-1 (CAKI-1): −3.69%
- Growth Percent IGROV1 (IGROV1): −13.50%
- Growth Percent U251 (U251): −69.50%
- Growth Percent NCI-H23 (NCI-H23): −26.91%
- Growth Percent LOX IMVI (LOX IMVI): −59.25%
- Growth Percent HT29 (HT29): 102.17%

From patent US8877748B2, “Heterocyclic fused anthraquinone derivatives, manufacturing method and pharmaceutical composition using thereof” (National Defense Medical Center, priority 2012, dated 2014)
